Source: ChEMBL document CHEMBL1147620, “Estrogen receptor ligands. Part 1: The discovery of flavanoids with subtype selectivity” (Bioorg Med Chem Lett, 2004)

Legend:
Estrogen receptor = target: T1, Estrogen receptor (Homo sapiens, UniProt P03372)
T1 sequence (P03372 whole entry): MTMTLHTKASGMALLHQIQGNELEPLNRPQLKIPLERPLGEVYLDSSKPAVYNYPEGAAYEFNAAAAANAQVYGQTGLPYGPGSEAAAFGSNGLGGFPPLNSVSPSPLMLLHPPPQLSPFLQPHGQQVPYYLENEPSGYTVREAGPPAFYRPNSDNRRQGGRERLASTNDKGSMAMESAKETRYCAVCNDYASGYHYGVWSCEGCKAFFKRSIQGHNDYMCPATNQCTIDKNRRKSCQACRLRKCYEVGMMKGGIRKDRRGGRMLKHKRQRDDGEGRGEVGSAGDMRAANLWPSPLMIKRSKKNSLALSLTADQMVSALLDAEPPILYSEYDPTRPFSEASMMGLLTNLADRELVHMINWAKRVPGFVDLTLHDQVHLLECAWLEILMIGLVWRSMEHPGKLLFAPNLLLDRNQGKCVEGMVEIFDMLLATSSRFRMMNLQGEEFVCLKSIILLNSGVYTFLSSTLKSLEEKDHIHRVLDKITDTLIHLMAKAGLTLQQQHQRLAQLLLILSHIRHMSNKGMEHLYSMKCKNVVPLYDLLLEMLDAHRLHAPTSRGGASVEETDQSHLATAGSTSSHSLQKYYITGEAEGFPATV
Description: Binding affinity against human estrogen receptor alpha in competitive binding assay

Estrogen receptor beta = Estrogen receptor beta (Homo sapiens, UniProt Q92731)
Chain of Estrogen receptor beta (Q92731 whole entry): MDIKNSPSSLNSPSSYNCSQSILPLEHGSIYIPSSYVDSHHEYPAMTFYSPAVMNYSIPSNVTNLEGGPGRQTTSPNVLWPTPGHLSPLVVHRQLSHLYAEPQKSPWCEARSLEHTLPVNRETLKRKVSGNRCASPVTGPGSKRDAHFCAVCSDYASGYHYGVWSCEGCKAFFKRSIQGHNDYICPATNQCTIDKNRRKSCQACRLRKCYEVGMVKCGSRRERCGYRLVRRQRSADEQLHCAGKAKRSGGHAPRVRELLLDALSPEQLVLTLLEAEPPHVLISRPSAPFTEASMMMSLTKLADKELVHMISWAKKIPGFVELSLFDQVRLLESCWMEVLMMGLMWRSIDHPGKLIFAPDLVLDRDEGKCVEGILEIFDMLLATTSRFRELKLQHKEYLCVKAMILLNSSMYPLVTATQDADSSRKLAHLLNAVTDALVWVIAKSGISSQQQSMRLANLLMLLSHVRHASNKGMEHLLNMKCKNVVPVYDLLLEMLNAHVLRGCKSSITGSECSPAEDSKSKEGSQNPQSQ
Description: Binding affinity against human estrogen receptor beta (ER beta) in competitive binding assay

| Compound | IC50 (Estrogen receptor) | IC50 (Estrogen receptor beta) |
| --- | --- | --- |
| C[C@@H]1C(=O)c2ccc(O)cc2O[C@@H]1c1ccc(OCCN2CCCCC2)cc1 | 3560 nM | 5640 nM |
| CC(C)[C@@H]1C(=O)c2ccc(O)cc2O[C@@H]1c1ccc(OCCN2CCCCC2)cc1 | 89 nM | 1200 nM |
| O=C1c2ccc(O)cc2O[C@H](c2ccc(OCCN3CCCCC3)cc2)[C@H]1c1ccc(O)cc1 | 49 nM | 1950 nM |
| O=C1c2ccccc2O[C@H](c2ccc(OCCN3CCCCC3)cc2)[C@@H]1c1ccc(O)cc1 | 179 nM | 510 nM |
| O=C1c2ccc(O)cc2O[C@H](c2ccc(OCCN3CCCCC3)cc2)[C@@H]1c1ccc(O)cc1 | 31 nM | 2050 nM |
| CCCc1cc(O)cc2c1C(=O)[C@@H](c1ccc(O)cc1)[C@@H](c1ccc(OCCN3CCCCC3)cc1)O2 | 652 nM | 207 nM |
| Oc1ccc([C@@H]2Cc3ccc(O)cc3O[C@@H]2c2ccc(OCCN3CCCCC3)cc2)cc1 | 6.7 nM | 8.9 nM |
| O=C1c2ccc(O)cc2O[C@H](c2ccc(OCCN3CCCCC3)cc2)[C@@H]1c1ccccc1 | 531 nM | 10000 nM |
| C[C@@H]1C(=O)c2c(O)cc(O)cc2O[C@@H]1c1ccc(OCCN2CCCCC2)cc1 | 551 nM | 1200 nM |
| Cc1cc(O)cc2c1C(=O)[C@@H](c1ccc(O)cc1)[C@@H](c1ccc(OCCN3CCCCC3)cc1)O2 | 14 nM | 546 nM |
| O=C1c2ccc(O)cc2O[C@H](c2ccc(O)cc2)[C@@H]1c1ccc(O)cc1 | 490 nM | 598 nM |
| CC(C)[C@H]1C(=O)c2ccc(O)cc2O[C@@H]1c1ccc(OCCN2CCCCC2)cc1 | 109 nM | 930 nM |
| COc1cc(O)ccc1[C@@H]1C(=O)c2ccc(O)cc2O[C@@H]1c1ccc(OCCN2CCCCC2)cc1 | 149 nM | 1360 nM |
| COc1cc([C@@H]2C(=O)c3ccc(O)cc3O[C@@H]2c2ccc(OCCN3CCCCC3)cc2)ccc1O | 413 nM | > 10000 nM |
| Cc1cc([C@@H]2C(=O)c3ccc(O)cc3O[C@@H]2c2ccc(OCCN3CCCCC3)cc2)cc(C)c1O | 1050 nM | > 10000 nM |
| O=C1c2c(F)cc(O)cc2O[C@H](c2ccc(OCCN3CCCCC3)cc2)[C@@H]1c1ccc(O)cc1 | 105 nM | 5390 nM |
| O/N=C1\c2ccc(O)cc2O[C@H](c2ccc(OCCN3CCCCC3)cc2)[C@@H]1c1ccc(O)cc1 | 1040 nM | 8610 nM |
| CCc1cc(O)cc2c1C(=O)[C@@H](c1ccc(O)cc1)[C@@H](c1ccc(OCCN3CCCCC3)cc1)O2 | 68 nM | 152 nM |
| Oc1ccc([C@H]2[C@@H](c3ccc(OCCN4CCCCC4)cc3)Oc3cc(O)ccc3[C@@H]2O)cc1 | 929 nM | 7000 nM |
| CCCCCc1cc(O)cc2c1C(=O)[C@@H](c1ccc(O)cc1)[C@@H](c1ccc(OCCN3CCCCC3)cc1)O2 | 71 nM | 454 nM |
| O=C1c2c(Cl)cc(O)cc2O[C@H](c2ccc(OCCN3CCCCC3)cc2)[C@@H]1c1ccc(O)cc1 | 58 nM | 1270 nM |
| C[C@H]1C(=O)c2ccc(O)cc2O[C@@H]1c1ccc(OCCN2CCCCC2)cc1 | 1410 nM | > 10000 nM |
